Data: US8436011B2, “Pyridinopyridinone derivatives, preparation thereof and therapeutic use thereof” (Sanofi, priority 2008, dated 2013)
Where two headings read alike, the source gives them in different places.

Key:
[1] = molecular target: T1, FLT3 receptor (MV4-11 cell line bearing an FLT3ITD mutant) (Homo sapiens, UniProt P36888, INS600HVDFREYEYD); assay: Inhibition of FLT3 receptor tyrosine kinase activity: proliferation of MV4-11 cells (CellTiter-Glo, 72 h); type: cell-based; settings: 72 hours incubation, read-out: IC50 (concentration that inhibits 50% of the proliferation of the MV4-11 cells)
T1 construct: MV4-11 cell line, which line is established from a leukaemia of constitutively active AML type bearing an FLT3ITD mutant; endogenous in cells; host or cells: MV4-11
T1 sequence (P36888 with tags, fused parts or gaps INS600HVDFREYEYD): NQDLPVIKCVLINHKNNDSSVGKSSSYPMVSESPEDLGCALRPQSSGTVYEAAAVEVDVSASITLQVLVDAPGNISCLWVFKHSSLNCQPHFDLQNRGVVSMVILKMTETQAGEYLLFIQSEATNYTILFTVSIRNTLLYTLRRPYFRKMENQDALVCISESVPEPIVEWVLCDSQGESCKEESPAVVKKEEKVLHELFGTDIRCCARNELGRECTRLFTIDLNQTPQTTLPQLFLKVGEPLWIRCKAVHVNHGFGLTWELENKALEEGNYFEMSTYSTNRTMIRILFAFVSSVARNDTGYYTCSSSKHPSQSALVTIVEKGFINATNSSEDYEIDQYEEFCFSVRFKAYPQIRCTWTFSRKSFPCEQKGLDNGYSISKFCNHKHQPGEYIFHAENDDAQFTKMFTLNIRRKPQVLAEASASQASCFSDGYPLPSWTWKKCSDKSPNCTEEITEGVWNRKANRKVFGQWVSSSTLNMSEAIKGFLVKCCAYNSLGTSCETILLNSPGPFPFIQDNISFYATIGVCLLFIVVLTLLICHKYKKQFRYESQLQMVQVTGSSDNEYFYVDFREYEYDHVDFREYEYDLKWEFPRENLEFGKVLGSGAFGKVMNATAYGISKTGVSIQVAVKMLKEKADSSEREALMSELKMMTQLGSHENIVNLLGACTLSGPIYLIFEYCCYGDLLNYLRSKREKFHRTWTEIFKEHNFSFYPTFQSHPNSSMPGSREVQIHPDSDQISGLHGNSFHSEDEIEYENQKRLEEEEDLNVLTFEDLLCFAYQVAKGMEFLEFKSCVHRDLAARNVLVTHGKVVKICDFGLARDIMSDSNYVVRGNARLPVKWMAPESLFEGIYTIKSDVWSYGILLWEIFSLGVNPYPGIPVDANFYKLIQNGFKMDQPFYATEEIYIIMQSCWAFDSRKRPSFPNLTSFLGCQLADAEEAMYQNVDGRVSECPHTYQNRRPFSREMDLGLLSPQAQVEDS
Description: Measurement of Inhibition of the Tyrosine Kinase Activity of the FLT3 Receptor
The inhibitory effect of the compounds according to the invention towards the tyrosine kinase activity of the FLT3 receptor was evaluated on an MV4-11 cell line, which line is established from a leukaemia of constitutively active AML type bearing an FLT3ITD mutant. The inhibitory activity is correlated to the inhibition of cell growth, according to the protocols described by Spiekermann, K. et al., Blood, 2003, 101, (4) 1494-1504 and O'Farrell, A.-M. et al., Blood, 2003, 101, (9) 3597-3605.
(§1) MV4-11 cells are washed with PBS buffer and inoculated in 96-well plates, at a density of 1×10^5 cells/ml (100 μL per well), in RPMI 1640 containing 10% FCS, in the presence or absence of the test compounds. After incubation for 72 hours, the viable cells are quantified by measuring the cellular ATP by means of the CellTiter-Glo® kit (Promega, Cat G7571). The cells are treated according to the instructions given by the kit manufacturer, and the luminescence is measured using a Luminoskan (Ascent, Labsystem) with the following parameters: measurement: single; integration time: 1000 ms, lag time: 5 s.
The inhibitory activity with respect to the FLT3 receptor is given by the concentration that inhibits 50% of the proliferation of the MV4-11 cells.

[2] = molecular target: T2, fusion protein Tel/PDGF-Rβ (BaF3 Tel/PDGF cells) (Homo sapiens, UniProt P09619); assay: Inhibition of PDGF-Rβ tyrosine kinase activity: proliferation of BaF3 Tel/PDGF cells (CellTiter-Glo, 72 h); type: cell-based, murine; settings: 72 hours incubation, read-out: IC50 (concentration that inhibits 50% of the proliferation of the BaF3 Tel/PDGF cells)
T2 construct: the transmembrane and intracellular part of the PDGF-Rβ receptor; N-terminal part of the Tel transcription factor (ETV6); expressed in transfected cells; host or cells: murine haematopoietic cell line BaF/3; the other entry of the earlier key: ETV6 (P41212, Transcription factor ETV6)
T2 sequence (P09619 with tags, fused parts or gaps): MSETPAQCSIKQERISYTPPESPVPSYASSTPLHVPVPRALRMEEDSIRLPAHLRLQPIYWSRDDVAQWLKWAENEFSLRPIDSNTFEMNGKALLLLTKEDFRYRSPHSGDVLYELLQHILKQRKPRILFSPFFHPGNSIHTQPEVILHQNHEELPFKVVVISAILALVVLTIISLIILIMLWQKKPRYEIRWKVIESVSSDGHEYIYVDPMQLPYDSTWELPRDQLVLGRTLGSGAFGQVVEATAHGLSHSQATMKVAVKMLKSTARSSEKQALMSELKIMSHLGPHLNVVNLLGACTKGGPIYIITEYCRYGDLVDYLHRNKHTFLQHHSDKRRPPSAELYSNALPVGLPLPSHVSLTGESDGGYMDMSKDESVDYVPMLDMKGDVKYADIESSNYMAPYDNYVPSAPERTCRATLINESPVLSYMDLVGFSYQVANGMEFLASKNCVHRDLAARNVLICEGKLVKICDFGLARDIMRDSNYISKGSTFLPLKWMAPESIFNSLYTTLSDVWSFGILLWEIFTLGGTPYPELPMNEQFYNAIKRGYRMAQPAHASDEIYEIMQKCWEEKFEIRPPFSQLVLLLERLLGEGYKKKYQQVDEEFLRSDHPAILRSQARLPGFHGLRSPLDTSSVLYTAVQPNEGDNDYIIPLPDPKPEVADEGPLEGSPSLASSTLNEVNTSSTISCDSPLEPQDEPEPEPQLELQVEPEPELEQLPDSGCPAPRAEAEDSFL
Description: Measurement of Inhibition of the Tyrosine Kinase Activity of the PDGF Beta (PDGF-Rβ) (Baf-3 tel/PDGFIRβ) Receptor:
This test consists in evaluating the effects of the compounds on the tyrosine kinase activity of the PDGF beta receptor.
The inhibitory effect of the compounds according to the invention towards the tyrosine kinase activity of the PDGF-R receptor was evaluated on the murine haematopoietic cell line BaF/3 transfected with a plasmid coding for the fusion protein Tel/PDGF-Rβ. This fusion protein is found in chronic myelomonocytic myeloid leukaemias (CMML). It comprises the N-terminal part of the Tel transcription factor and the transmembrane and intracellular part of the PDGF-Rβ receptor. This fusion protein is present in dimerized form (presence of an oligomerization domain in the N-terminal part of Tel) and, as a result, leads to constitutive activity of the kinase domain of PDGF-Rβ. This line BaF3 Tel/PDGF has been described in the literature several times and especially, in detailed manner, in the article by M. Carroll et al., PNAS, 1996, 93, 14845-14850.
as §1, with “The BaF3 Tel/PDGF” for “MV4-11”, “phosphate” for “PBS”, “5×10^4” for “1×10^5”, “[…]” for “μL”
It is thus seen that the compounds according to the invention have inhibitory activity on the tyrosine kinase activity of PDGF-Rβ. This activity is given by the concentration that inhibits 50% of the proliferation of the BaF3 Tel/PDGF cells (IC50).

[3] = molecular target: T3, fusion protein Tel/PDGF-R (PDGF-Rβ kinase domain) in HEK cells (Homo sapiens, UniProt P09619); assay: Ex vivo activity: plasma of orally treated mice tested on PDGF-R autophosphorylation in HEK Tel/PDGF-R cells (ELISA); set-up: species or system female Balb/c mice; settings: HEK293, mouse, po, 30 mg/kg po, read-out: % inhibition of autophosphorylation of PDGFR tyrosine kinase in HEK cells
T3 construct: the transmembrane and intracellular part of the PDGF-Rβ receptor; N-terminal part of the Tel transcription factor (ETV6); expressed in transfected cells; host or cells: HEK cells (transient transfection); the other entry of the earlier key: ETV6 (P41212, Transcription factor ETV6)
T3 sequence (P09619 with tags, fused parts or gaps): as above
Description: Ex vivo activity of the compounds of the invention was measured. These compounds are thus administered orally to female Balb/c mice at a dose of 10, 30 or 100 mg/kg in suspension or in solution in a vehicle such as methylcellulose/Tween and the inhibition of the tyrosine kinase activity is measured in vitro in a cell test, using plasma collected at 15 minutes, 1 hour and 4 hours.
1) Protocol for Administration of the Products to the Mice
The products are prepared in a mortar with 0.5% Tween 80 and 0.6% methylcellulose qs final volume. Depending on the case, preparations of different vehicles may be used: water, mixture of labrasol solutol 5% glucose-water. The suspended or dissolved products are administered by gavage (10 ml/kg) to female Balb/c mice 8 to 15 weeks old.
The animals are then collected at the time given by the protocol (15 min, 1 hour, 4 hours, 16 hours).
The animals are anaesthetized by intraperitoneal injection (10 ml/kg) of a ketamine (0.1 g/kg)-xylazine (20 mg/kg) mixture. […] The blood sample is collected from the vein or the artery using a dry syringe and needle. The blood is immediately transferred into heparin lithium tubes (BD microtainer). Centrifugation for 3 minutes at 12 000 rpm allows recovery of the plasma, on which the biochemical test may be performed after storage by freezing at −20° C.
2) Preparation of the HEK Tel/PDGF-R Cells and Measurement of the Phosphorylation of PDGF-R
In order to detect the ex vivo activity of the products using the mouse plasmas, the HEK cells are transiently transfected beforehand with an expression vector coding for the fusion protein Tel/PDGF-R (fusion protein described previously). After 24 hours of transfection, the cells are deprived of serum overnight and then incubated for 30 minutes with the animal plasmas treated with the products of the invention. The cells are then lysed in RIPA buffer, and detection of the phosphorylation of PDGF-Rβ is then performed via the ELISA technique, using a commercial kit (R&D Systems, DYC1767). The results are expressed as a percentage of inhibition of the autophosphorylation.
In this test of measurement of the ex vivo activity, the effect of the compounds of the invention is quantified by the percentage of inhibition of phosphorylation of the kinase domain of the PDGF-Rβ receptor in HEK cells, induced by the inhibitory activity of the product present in the plasma of the treated animals, as described in the following table: […]

IC50 [1] | IC50 [2] | melting point | SMILES | also measured
330 nM | – | – | CCn1c(N)c(C(=O)NC)c(=O)c2ccc(-c3ccc(CC(=O)Nc4cccnc4)cc3)nc21 [compound 3, 2-amino-1-ethyl-N-methyl-4-oxo-7-{4-[2-oxo-2-(pyrid-3-ylamino)ethyl]-phenyl}-1,4-dihydro-1,8-naphthyridine-3-carboxamide] | –
– | 162 nM | 264 °C | CCCNC(=O)c1c(N)n(CC)c2nc(-c3ccc(CC(=O)NCC4CCCN4CC)cc3)ccc2c1=O (centres unmarked) [compound 48, 2-amino-1-ethyl-7-[4-(2-{[(1-ethylpyrrolidin-2-yl)methyl]amino}-2-oxoethyl)phenyl]-4-oxo-N-propyl-1,4-dihydro-1,8-naphthyridine-3-carboxamide] | –
210 nM | – | – | CCn1c(N)c(C(=O)NC)c(=O)c2ccc(-c3ccc(CC(=O)Nc4ccccn4)cc3)nc21 [compound 4, 2-amino-1-ethyl-N-methyl-4-oxo-7-{4-[2-oxo-2-(pyrid-2-ylamino)ethyl]-phenyl}-1,4-dihydro-1,8-naphthyridine-3-carboxamide] | –
– | – | – | CCn1c(N)c(C(=O)NC)c(=O)c2ccc(-c3ccc(CC(=O)NC[C@H]4CCCN4CC(F)F)cc3)nc21 [compound 31, 2-amino-7-{4-[2-({[(2R)-1-(2,2-difluoroethyl)pyrrolidin-2-yl]methyl}amino)-2-oxoethyl]phenyl}-1-ethyl-N-methyl-4-oxo-1,4-dihydro-1,8-naphthyridine-3-carboxamide] | inhibition at 30 mg/kg ([3]; plasma collected at 15 min): 85%; inhibition at 30 mg/kg ([3]; plasma collected at 1 h): 68%; inhibition at 30 mg/kg ([3]; plasma collected at 4 h): 42%
– | 48 nM | 230 °C | CCN1CCCC1CNC(=O)CCCc1ccc(-c2ccc3c(=O)c(C(=O)NC)c(N)n(CC)c3n2)cc1 (centres unmarked) [compound 47, 2-amino-1-ethyl-7-[4-(4-{[(1-ethylpyrrolidin-2-yl)methyl]amino}-4-oxobutyl)phenyl]-N-methyl-4-oxo-1,4-dihydro-1,8-naphthyridine-3-carboxamide] | –
– | 35 nM | – | CCn1c(N)c(C(=O)NC)c(=O)c2ccc(-c3ccc(CC(=O)NC[C@H]4CCCN4CCF)cn3)nc21 [compound 29, 2-amino-1-ethyl-7-{5-[2-({[(2R)-1-(2-fluoroethyl)pyrrolidin-2-yl]methyl}-amino)-2-oxoethyl]pyrid-2-yl}-N-methyl-4-oxo-1,4-dihydro-1,8-naphthyridine-3-carboxamide] | –
182 nM | – | > 280 °C | CCn1c(N)c(C(=O)NC)c(=O)c2ccc(-c3ccc(CC(=O)Nc4ccncn4)cc3)nc21 [compound 16, 2-amino-1-ethyl-N-methyl-4-oxo-7-{4-[2-oxo-2-(pyrimidin-4-ylamino)-ethyl]phenyl}-1,4-dihydro-1,8-naphthyridine-3-carboxamide] | –
– | 5.5 nM | 278 °C | CCn1c(N)c(C(=O)NC)c(=O)c2ccc(-c3ccc(CC(=O)NCCCc4ccccc4)cc3)nc21 [compound 41, 2-amino-1-ethyl-N-methyl-4-oxo-7-(4-{2-oxo-2-[(3-phenylpropyl)amino]-ethyl}phenyl)-1,4-dihydro-1,8-naphthyridine-3-carboxamide] | –
– | – | – | CCN1C[C@H](F)C[C@H]1CNC(=O)Cc1ccc(-c2ccc3c(=O)c(C(=O)NC)c(N)n(CC)c3n2)cc1 [compound 26, 2-amino-1-ethyl-7-{4-[2-({[(2S,4R)-1-ethyl-4-fluoropyrrolidin-2-yl]methyl}-amino)-2-oxoethyl]phenyl}-N-methyl-4-oxo-1,4-dihydro-1,8-naphthyridine-3-carboxamide] | inhibition at 30 mg/kg ([3]; plasma collected at 15 min): 58%; inhibition at 30 mg/kg ([3]; plasma collected at 1 h): 67%; inhibition at 30 mg/kg ([3]; plasma collected at 4 h): 20%
